Drawing on paper PMC9863562, “Design, Synthesis, and Biological Evaluation of 2-Mercaptobenzoxazole Derivatives as Potential Multi-Kinase Inhibitors” (Pharmaceuticals, 2023), this text covers melting point and IC50 for eleven compounds.

The subject of series [1] is MCF-7 cells (mammary gland cancer). In words: MTT cytotoxicity assay, MCF-7. It is filed as cell-based. Conditions: Homo sapiens, MCF7, 24 h treatment, read-out: In Vitro Cytotoxicity IC50 MCF-7. On the procedure: (§1) After incubation, the cells were treated with various concentrations of the synthesized compounds and incubated for an additional 24 h. Following the drug treatment, 20 µL of 5 mg/mL MTT solution was added and incubated for 4 h. To dissolve the purple formazan that had formed, 100 µL dimethyl sulfoxide (DMSO) was added to each well. […] The percentage of relative cell viability was counted using the following formula (A570 of handled specimens/A570 of the unhandled specimen), multiplied by 100.

Series [2] deals with HeLa cells (epithelioid cervix carcinoma). In words: MTT cytotoxicity assay, HeLa. The class given is cell-based. Conditions: Homo sapiens, 24 h treatment, read-out: In Vitro Cytotoxicity IC50 Hela. On the procedure: as §1
The subject of series [3] is MDA-MB-231 cells (breast cancer). In words: MTT cytotoxicity assay, MDA-MB-231. It is filed as cell-based. Conditions: Homo sapiens, 24 h treatment, read-out: In Vitro Cytotoxicity IC50 MDA-MB-231. On the procedure:
as §1

For series [4], the system named is HepG2 cells (hepatocellular carcinoma). In words: MTT cytotoxicity assay, HepG2. It is filed as cell-based. As to conditions: Homo sapiens, HepG2, 24 h, 24 h treatment, read-out: In Vitro Cytotoxicity IC50 HepG2. The source says:
(§2) The in vitro cytotoxicity for the final target compounds, 4(a–d), 5(a–f), and 6(a–b), was preliminarily evaluated via the MTT colorimetric assay against a panel of four human cell lines, namely, the hepatocellular carcinoma (HepG2), mammary gland (MCF-7), breast cancer (MDA-MB-231) and epithelioid cervix carcinoma (HeLa).
(§3) The cytotoxicity of the target hybrids was examined by an MTT assay against HepG2, HeLa, MCF-7, and MDA-MB-231. At first, the RPMI-1640 medium with 10% fetal bovine serum was used to cultivate the cell lines. Then, antibiotics (penicillin (100 units/mL) and streptomycin (100 µg/mL)) were added in a 37 °C incubator in 5% CO2. The cell lines were seeded in a 96-well plate at a density of 1.0 × 10^4 cells/well at 37 °C under 5% CO2 for 48 h. After incubation, the cells were treated with various concentrations of the synthesized compounds and incubated for an additional 24 h. Following the drug treatment, 20 µL of 5 mg/mL MTT solution was added and incubated for 4 h. To dissolve the purple formazan that had formed, 100 µL dimethyl sulfoxide (DMSO) was added to each well. At a wavelength of 570 nm, the colorimetric assay was recorded and measured, using a plate reader BioTek EXL 800 (Agilent Technologies, Inc., Santa Clara, CA, USA). The percentage of relative cell viability was counted using the following formula (A570 of handled specimens/A570 of the unhandled specimen), multiplied by 100. The results of the cytotoxicity value were presented as the median growth inhibitory concentration (IC50) of the reagents compared to the control.

For series [5], the system named is HepG2, MCF-7, MDA-MB-231 and HeLa cell lines. In words: MTT cytotoxicity assay, panel of four cell lines. The class given is cell-based. Conditions: Homo sapiens, range over HepG2, MCF-7, MDA-MB-231, HeLa, read-out: IC50 values, range over the tested cell lines.
Excerpt: as §2, §3

As to `O=C(CSc1nc2ccccc2o1)NN=Cc1ccc(Cl)c(Cl)c1` (mixture of isomers) [Compound 4a, (E/Z)-N′-(3,4-dichlorobenzylidene)-2-(benzo[d]oxazol-2-ylthio)acetohydrazide], the melting point fell in the range of 193 to 195 °C. In addition, the 50% inhibitory concentration (IC50) in series [1] turned out to be 74.2 ± 3.5 µM. The IC50 in series [2] was 67.6 ± 3.4 µM. Further, the IC50 in series [3] worked out at 75.5 ± 3.6 µM. Also, the IC50 in series [4] stood at 81.2 ± 3.7 µM.

Compound `O=C(CSc1nc2ccccc2o1)NN=Cc1ccc(OC(F)(F)F)cc1` (mixture of isomers) [Compound 4b, (E/Z)-N′-(4-(trifluoromethoxy)benzylidene)-2-(benzo[d]oxazol-2-ylthio)acetohydrazide] had a melting point of 154 to 156 °C. In addition, the IC50 in series [1] was 15.2 ± 1.2 µM. In series [2], the IC50 was found to be 19.3 ± 1.6 µM. For the same compound, the concentration for half-maximal inhibition (IC50) in series [3] was 9.72 ± 0.7 µM. The IC50 in series [4] worked out at 13.1 ± 1.1 µM.

Turning to `N#Cc1ccc(C=NNC(=O)CSc2nc3ccccc3o2)cc1` (mixture of isomers) [Compound 4c, (E/Z)-N′-(4-cyanobenzylidene)-2-(benzo[d]oxazol-2-ylthio)acetohydrazide], the melting point lay in the range of 246 to 248 °C. Further, the IC50 in series [1] was determined as 38.6 ± 2.5 µM. For the same compound, the half-inhibitory concentration (IC50) in series [2] is 35.2 ± 2.5 µM. Moreover, the 50% inhibitory concentration (IC50) in series [3] came to 21.1 ± 1.6 µM. Also, the IC50 in series [4] is 34.5 ± 2.2 µM.

As for `COc1cc(C=NNC(=O)CSc2nc3ccccc3o2)ccc1O` (mixture of isomers) [Compound 4d, (E/Z)-N′-(4-hydroxy-3-methoxybenzylidene)-2-(benzo[d]oxazol-2-ylthio)acetohydrazide], the melting point lay within 150 to 153 °C. For the same compound, in series [1], the IC50 was 11.1 ± 0.9 µM. Moreover, the IC50 in series [2] was determined as 12.9 ± 0.9 µM. Further, the concentration for half-maximal inhibition (IC50) in series [3] was determined as 4.93 ± 0.2 µM. In addition, in series [4], the IC50 was determined as 9.37 ± 0.7 µM. In series [5], the IC50 lay within 2.14 to 12.9 µM.

Regarding `O=C(CSc1nc2ccccc2o1)NN=Cc1cccs1` (mixture of isomers) [Compound 6a, (E/Z)-2-(benzo[d]oxazol-2-ylthio)-N′-((thiophen-2-yl)methylene)acetohydrazide], the melting point is 218 to 221 °C. The IC50 in series [1] is 42.9 ± 2.8 µM. Further, the IC50 in series [2] came to 46.4 ± 2.7 µM. Besides, the IC50 in series [3] came to 30.8 ± 2.2 µM. Further, the IC50 in series [4] worked out at 26.4 ± 1.8 µM.

The compound `O=C(CSc1nc2ccccc2o1)NN=C1C(=O)Nc2ccccc21` [Compound 5a, (E/Z)-2-(benzo[d]oxazol-2-ylthio)-N′-(2-oxoindolin-3-ylidene)acetohydrazide] yielded a melting point of 223 to 225 °C. The IC50 in series [1] was found to be 23.5 ± 1.8 µM. In addition, the IC50 in series [2] was determined as 28.9 ± 2 µM. Also, in series [3], the half-inhibitory concentration (IC50) was determined as 14.6 ± 1.2 µM. The IC50 in series [4] is 18 ± 1.3 µM.

With `Cc1ccc2c(c1)C(=NNC(=O)CSc1nc3ccccc3o1)C(=O)N2` [Compound 5b, (E/Z)-2-(benzo[d]oxazol-2-ylthio)-N′-(5-methyl-2-oxoindolin-3-ylidene)acetohydrazide], the melting point lay within 230 to 233 °C. Also, the IC50 in series [1] was found to be 27.4 ± 2 µM. Further, the IC50 in series [2] is 31.5 ± 2.3 µM. Besides, the concentration for half-maximal inhibition (IC50) in series [3] was 36.2 ± 2.4 µM. The IC50 in series [4] amounted to 41.7 ± 2.4 µM.

Compound `O=C(CSc1nc2ccccc2o1)NN=C1C(=O)Nc2ccc([N+](=O)[O-])cc21` [Compound 5c, (E/Z)-2-(benzo[d]oxazol-2-ylthio)-N′-(5-nitro-2-oxoindolin-3-ylidene)acetohydrazide] registered a melting point of 165 to 167 °C. Moreover, in series [1], the concentration for half-maximal inhibition (IC50) amounted to 48.3 ± 2.8 µM. For the same compound, the half-maximal inhibitory concentration (IC50) in series [2] was found to be 50.6 ± 2.9 µM. Further, the half-maximal inhibitory concentration (IC50) in series [3] worked out at 62.4 ± 3.1 µM. Moreover, the IC50 in series [4] was 56.2 ± 2.9 µM.

For the compound `COc1ccc2c(c1)C(=NNC(=O)CSc1nc3ccccc3o1)C(=O)N2` [Compound 5d, (E/Z)-2-(benzo[d]oxazol-2-ylthio)-N′-(5-methoxy-2-oxoindolin-3-ylidene)acetohydrazide], the melting point was in the range of 145 to 147 °C. For the same compound, in series [1], the IC50 is 7.58 ± 0.6 µM. In addition, the IC50 in series [2] turned out to be 6.27 ± 0.7 µM. Also, the concentration for half-maximal inhibition (IC50) in series [3] was found to be 8.44 ± 0.6 µM. The 50% inhibitory concentration (IC50) in series [4] came out at 10.5 ± 0.9 µM. Besides, the IC50 in series [5] fell in the range of 2.14 to 12.9 µM.

Take `O=C(CSc1nc2ccccc2o1)NN=C1C(=O)Nc2ccc(Cl)cc21` [Compound 5e, (E/Z)-2-(benzo[d]oxazol-2-ylthio)-N′-(5-chloro-2-oxoindolin-3-ylidene)acetohydrazide]: the melting point lay in the range of 264 to 267 °C. For the same compound, in series [1], the IC50 is 53 ± 3.1 µM. Further, the half-inhibitory concentration (IC50) in series [2] was 58.4 ± 3.2 µM. Besides, the IC50 in series [3] amounted to 51.5 ± 2.8 µM. The half-maximal inhibitory concentration (IC50) in series [4] is 45.2 ± 2.7 µM.

For the compound `O=C(CSc1nc2ccccc2o1)NN=C1C(=O)Nc2ccc(F)cc21` [Compound 5f, (E/Z)-2-(benzo[d]oxazol-2-ylthio)-N′-(5-fluoro-2-oxoindolin-3-ylidene)acetohydrazide], the melting point was in the range of 225 to 227 °C. The IC50 in series [1] was 70.3 ± 3.3 µM. Further, in series [2], the IC50 is 59.2 ± 3.1 µM. For the same compound, the IC50 in series [3] worked out at 68.1 ± 3.5 µM. Moreover, the IC50 in series [4] was found to be 63.7 ± 3.2 µM.
